Source: PMC9266368, “Synthesis and Biological Evaluation of Small Molecules as Potential Anticancer Multitarget Agents” (International Journal of Molecular Sciences, 2022)

Assays:
HMEC-1 cells = assay: Tube disruption on Matrigel (antivascular activity); assay type: cell-based; conditions: 100 μM added to 24 h networks, observed after another 24 h
Description: The antivascular and antiangiogenic activities of the selected compounds, namely 21, 22, and 23, were settled by 3D Matrigel cell cultures. First, we studied the effect on a microvessel network from HMEC-1 cells. HMEC-1 cells were on Matrigel, and after 24 h, when organized capillary networks were formed, 100 μM of the corresponding compounds, 21–23, was added. After another 24 h, we compared the treated networks with the one that received no treatment (see Figure 5a–c).
Wells of a IBIDI 15-well μ-plate for angiogenesis were coated with 15 μL of Matrigel® (10 mg/mL, BD Biosciences Europe) at 4 °C. After gelatinization at 37 °C for 30 min, HMEC-1 cells were seeded at 2 × 10^4 cells/well in 25 μL of culture medium on top of the Matrigel and were incubated for 30 min at 37 °C while they were attached.
For the tube disruption assay (study of antivascular activity), after 24 h, we checked that the capillary networks were formed on wells, and then 100 μM of compounds was added. After 24 h of treatment, the cultures were observed again, and pictures of each well were taken.

[1] = test system: A-549 (lung adenocarcinoma); assay: MTT cell viability assay, A-549; assay type: cell-based; conditions: Homo sapiens, A549, 48 h, 2 days incubation, average ±SD of three experiments
Description: (§1) The effects of triazole derivatives 1–26 on the cell viability were determined by MTT assay, and the IC50 values were determined toward the human tumor cell lines HT-29 (colon adenocarcinoma), A-549 (lung adenocarcinoma), and MCF-7 (breast adenocarcinoma), as well as toward the non-tumor cell line HEK-293 (human embryonic kidney cells).
(§2) In 96-well plates, 3 × 10^3 (A549 and HEK-293) or 5 × 10^3 (HT-29, MCF-7) cells per well were incubated with serial dilutions of the tested compounds in a total volume of 100 μL of their growth media. The 3-(4,5-dimethylthiazol-2-yl)-2,5-diphenyltetrazolium bromide (MTT; Sigma Chemical Co.) dye reduction assay in 96-well microplates was used. After 2 days of incubation (37 °C, 5% CO2 in a humid atmosphere), 10 μL of MTT (5 mg/mL in phosphate-buffered saline, PBS) was added to each well, and the plate was incubated for a further 3 h (37 °C). After that, the supernatant was discarded and replaced by 100 µL of DMSO to dissolve formazan crystals. The absorbance was then read at 550 nm by spectro-photometry. For all concentrations of compound, cell viability was expressed as the percentage of the ratio between the mean absorbance of treated cells and the mean absorbance of untreated cells. Three independent experiments were performed, and the IC50 values (i.e., concentration half inhibiting cell proliferation) were graphically determined by using GraphPad Prism 4 software (2019).

total PD-L1 (tPD-L1) = biological target: T1, total PD-L1 (tPD-L1) (Homo sapiens, UniProt Q9NZQ7); assay: Total PD-L1 relative quantification by flow cytometry; assay type: cell-based; conditions: for tPD-L1 relative detection, A-549 / tPD-L1 relative detection, HT-29 / tPD-L1 relative detection, MCF-7: 24 h, 100 or 10 μM (Table 7), relative to DMSO control
T1 construct: endogenous in cells; host or cells: HT-29, A-549, MCF-7
Description: (§3) The study was carried out again on HT-29, A-549, and MCF-7 cell lines by flow cytometry after 24 h of treatment with the corresponding compounds. The presence of the targets in the whole cell were relatively determined by using DMSO-treated cells as a negative control and BMS-8 as a positive one for PD-L1 (Table 3).
(§4) To study the effect of the compounds on every biological target in cancer cell lines the compounds were used at a 100 or 10 μM dose, depending on their IC50 and the treated cell line.
(§5) For the assay, 10^5 cells per well were incubated for 24 h with the corresponding dose of the tested compound in a total volume of 500 μL of their growth media.
(§6) For the detection of total PD-L1, VEGFR-2, and c-Myc, the procedure was the same as for membrane targets, but after fixation, a treatment with 0,5% in PBS TritonTM X-100 was performed. The antibodies used for PD-L1 and VEGFR-2 were the ones previously described, and for the detection of c-Myc, it was FITC Rabbit monoclonal anti-c-Myc (ab223913).

[2] = test system: MCF-7 (breast adenocarcinoma); assay: MTT cell viability assay, MCF-7; assay type: cell-based; conditions: Homo sapiens, MCF7, 48 h, 2 days incubation, average ±SD of three experiments
Description: as §1, §2

c-Myc = c-Myc relative quantification by flow cytometry; assay type: cell-based, human; conditions: for c-Myc relative detection, A-549 / c-Myc relative detection, HT-29 / c-Myc relative detection, MCF-7: 24 h, 100 or 10 μM (Table 7), relative to DMSO control
Description: as §3, §4, §5, §6

T1 sequence (Q9NZQ7 19-290): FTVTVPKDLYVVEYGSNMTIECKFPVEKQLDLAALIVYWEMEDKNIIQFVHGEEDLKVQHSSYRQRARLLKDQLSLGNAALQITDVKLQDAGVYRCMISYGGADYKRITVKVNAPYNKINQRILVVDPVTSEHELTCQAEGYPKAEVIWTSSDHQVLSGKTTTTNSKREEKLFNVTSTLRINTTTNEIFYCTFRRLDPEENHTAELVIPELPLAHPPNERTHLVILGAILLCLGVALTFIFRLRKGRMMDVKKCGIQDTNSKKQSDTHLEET

| IC50 [1] [µM] | tPD-L1 relative detection, A-549 (total PD-L1 (tPD-L1)) [%] | tPD-L1 relative detection, HT-29 (total PD-L1 (tPD-L1)) [%] | Inhibition of total PD-L1, MCF-7 (total PD-L1 (tPD-L1)) | tPD-L1 relative detection, MCF-7 (total PD-L1 (tPD-L1)) [%] | IC50 [2] [µM] | SMILES | Antivascular effect on formed HMEC-1 capillary networks (HMEC-1 cells) | c-Myc relative detection, A-549 (c-Myc) [%] | c-Myc relative detection, HT-29 (c-Myc; HT-29) [%] | Inhibition of c-Myc, HT-29 (c-Myc; HT-29, compared to non-treated cells) [%] | c-Myc relative detection, MCF-7 (c-Myc) [%] |
| --- | --- | --- | --- | --- | --- | --- | --- | --- | --- | --- | --- |
| > 100 | 81 ± 15 | 52 ± 3 | around 40% | 61 ± 14 | 9 ± 6 | Nc1ccc(-c2cn(Cc3ccc(Cl)cc3)nn2)cc1 [Compound 23, 4-(1-(4-chlorobenzyl)-1H-1,2,3-triazol-4-yl)aniline] | disturbance of the formed microvasculature-like network | >100 | 84 ± 5 | 20 | 51 ± 8 |
| > 100 | 75 ± 10 | 52 ± 7 | around 40% | 69 ± 7 | 8 ± 2 | Nc1ccc(-c2cn(Cc3cccc(Cl)c3)nn2)cc1 [Compound 22, 4-(1-(3-chlorobenzyl)-1H-1,2,3-triazol-4-yl)aniline] | disturbance of the formed microvasculature-like network | >100 | >100 | – | 59 ± 5 |
| > 100 | 78 ± 9 | 60 ± 6 | – | >100 | 11 ± 2 | Nc1ccc(-c2cn(Cc3ccccc3Cl)nn2)cc1 [Compound 21, 4-(1-(2-chlorobenzyl)-1H-1,2,3-triazol-4-yl)aniline] | disturbance of the formed microvasculature-like network | >100 | >100 | – | 59 ± 6 |
